According to US9315498B2, “Arlethynyl derivatives” (Hoffmann-La Roche Inc., priority 2010, dated 2016):

Target: human mGlu5a receptor (Homo sapiens (Human), UniProt P41594)
Experiment: Intracellular Ca2+ mobilization assay (mGlu5 PAM)
Format: cell-based
Settings: for EC50: HEK-293 cells stably transfected with human mGlu5a, L-glutamate added at EC20 after pre-incubation with test compound, read-out: EC50 (nM) mGlu5PAM; for Emax: maximal response in % of the maximal stimulatory effect obtained with saturating concentrations of L-glutamate, read-out: Eff. (%)
Outline: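 HEK-293 cells stably expressing human mGlu5a at low level were loaded with Fluo-4AM and preincubated 10–30 min at 37 °C with 11-point half-log compound dilutions. L-glutamate was then added at its daily-determined EC20 (typically around 80 μM). Peak fluorescence minus basal, normalized to maximal glutamate effect, was fitted to give EC50, Hill slope and maximal response.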

Chain of human mGlu5a receptor (P41594 other isoform, or with tags, fused parts or gaps): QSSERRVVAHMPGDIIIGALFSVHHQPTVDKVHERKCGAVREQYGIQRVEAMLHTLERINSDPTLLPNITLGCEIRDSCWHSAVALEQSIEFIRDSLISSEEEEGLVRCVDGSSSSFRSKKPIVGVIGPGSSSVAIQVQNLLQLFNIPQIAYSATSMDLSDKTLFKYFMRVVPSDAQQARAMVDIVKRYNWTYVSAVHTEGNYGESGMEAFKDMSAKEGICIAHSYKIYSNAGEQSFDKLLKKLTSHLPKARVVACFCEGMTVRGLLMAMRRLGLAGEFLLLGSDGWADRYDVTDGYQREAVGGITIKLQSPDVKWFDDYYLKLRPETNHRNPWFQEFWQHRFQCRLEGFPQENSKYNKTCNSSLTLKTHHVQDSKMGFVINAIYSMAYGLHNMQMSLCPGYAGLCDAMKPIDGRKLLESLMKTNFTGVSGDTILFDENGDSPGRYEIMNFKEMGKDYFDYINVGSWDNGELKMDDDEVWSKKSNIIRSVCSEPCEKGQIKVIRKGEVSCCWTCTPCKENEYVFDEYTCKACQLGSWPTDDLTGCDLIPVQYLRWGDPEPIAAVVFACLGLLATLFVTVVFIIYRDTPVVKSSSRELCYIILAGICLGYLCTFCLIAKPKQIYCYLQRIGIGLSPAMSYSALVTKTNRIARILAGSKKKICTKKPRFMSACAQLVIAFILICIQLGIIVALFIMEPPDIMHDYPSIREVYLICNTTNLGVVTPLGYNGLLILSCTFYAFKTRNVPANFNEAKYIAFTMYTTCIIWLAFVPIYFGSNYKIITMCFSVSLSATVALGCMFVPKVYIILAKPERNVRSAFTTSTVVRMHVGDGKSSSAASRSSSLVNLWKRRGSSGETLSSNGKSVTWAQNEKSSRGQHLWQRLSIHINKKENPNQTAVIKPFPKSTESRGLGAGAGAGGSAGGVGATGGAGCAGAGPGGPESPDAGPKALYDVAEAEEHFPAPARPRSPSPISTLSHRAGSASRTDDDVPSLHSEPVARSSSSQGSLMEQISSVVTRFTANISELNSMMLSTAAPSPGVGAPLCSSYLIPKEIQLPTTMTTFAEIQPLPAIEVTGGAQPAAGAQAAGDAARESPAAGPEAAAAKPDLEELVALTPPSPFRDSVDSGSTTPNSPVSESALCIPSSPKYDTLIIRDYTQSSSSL

Row | Structure (SMILES) | EC50 [nM] | Emax [%]
1 | O=C1OC2COCCC2N1c1ccc(C#Cc2ccccc2)cn1 (stereo not drawn) [Example 94, (3aSR,7aRS)-(3aRS,7RS)-1-(5-Phenylethynyl-pyridin-2-yl)-hexahydro-pyrano[4,3-d]oxazol-2-one] | 60 | 84
2 | O=C1N(c2ccc(C#Cc3cccnc3)cn2)CC2CCCCN12 (racemic) [Example 70, (RS)-2-(5-Pyridin-3-ylethynyl-pyridin-2-yl)-hexahydro-imidazo[1,5-a]pyridin-3-one] | 74 | 51
3 | CC1CN(c2ncc(C#Cc3ccc(F)cc3)cn2)C(=O)OC1(C)C (racemic) [Example 149, (RS)-3-[5-(4-Fluoro-phenylethynyl)-pyrimidin-2-yl]-5,6,6-trimethyl-[1,3]oxazinan-2-one] | 114 | 78
4 | CC1(C)CC(=O)N(c2ncc(C#Cc3ccc(F)cc3)cn2)C1 [Example 120, 1-[5-(4-Fluoro-phenylethynyl)-pyrimidin-2-yl]-4,4-dimethyl-pyrrolidin-2-one] | 92 | 81
5 | CN1C(=O)N(c2ccc(C#Cc3ccccc3)cn2)C2CCCCC21 (stereo not drawn) [Example 84, (3 aSR,7aRS)-(3aRS,7RS)-1-Methyl-3-(5-phenylethynyl-pyridin-2-yl)-octahydro-benzoimidazol-2-one] | 11 | 64
6 | CC1(C)CC(=O)N(c2ccc(C#Cc3cncc(F)c3)cn2)C1 [Example 37, 1-[5-(5-Fluoro-pyridin-3-ylethynyl)-pyridin-2-yl]-4,4-dimethyl-pyrrolidin-2-one] | 22 | 96
7 | CC1(C)CCN(c2ccc(C#Cc3cncc(Cl)c3)cn2)C(=O)C1 [Example 90, 5′-(5-Chloro-pyridin-3-ylethynyl)-4,4-dimethyl-3,4,5,6-tetrahydro-[1,2′]bipyridinyl-2-one] | 66 | 90
8 | CC1CN(c2ccc(C#Cc3ccccc3)cn2)C(=O)OC1(C)C (racemic) [Example 104, (RS)-5,6,6-Trimethyl-3-(5-phenylethynyl-pyridin-2-yl)-[1,3]oxazinan-2-one] | 42 | 109
9 | CC(C)N1C(=O)N(c2ccc(C#Cc3ccccc3)cn2)C2CCCCC21 (stereo not drawn) [Example 101, (3aSR,7aRS)-(3aRS,7RS)-1-Isopropyl-3-(5-phenylethynyl-pyridin-2-yl)-octahydro-benzoimidazol-2-one] | 39 | 77
10 | CC1(C)CCCN(c2ccc(C#Cc3ccccc3)cn2)C(=O)O1 [Example 93, 7,7-Dimethyl-3-(5-phenylethynyl-pyridin-2-yl)-[1,3]oxazepan-2-one] | 36 | 104
11 | Cc1cc(C#Cc2cccc(F)c2)cnc1N1CC(C)(C)N(C)C1=O [Example 108, 1-[5-(3-Fluoro-phenylethynyl)-3-methyl-pyridin-2-yl]-3,4,4-trimethyl-imidazolidin-2-one] | 102 | 115
12 | COCC1CCN(c2ccc(C#Cc3ccccc3)cn2)C(=O)O1 (racemic) [Example 105, (RS)-6-Methoxymethyl-3-(5-phenylethynyl-pyridin-2-yl)-[1,3]oxazinan-2-one] | 68 | 51
13 | COC1CN(c2ccc(C#Cc3ccccc3)cn2)C(=O)OC1(C)C (racemic) [Example 114, (RS)-5-Methoxy-6,6-dimethyl-3-(5-phenylethynyl-pyridin-2-yl)-[1,3]oxazinan-2-one] | 22 | 57
14 | CN1CC(C)(C)CN(c2ccc(C#Cc3ccccc3)cn2)C1=O [Example 26, 1,5,5-Trimethyl-3-(5-phenylethynyl-pyridin-2-yl)-tetrahydro-pyrimidin-2-one] |  | 131
15 | CN1C(=O)N(c2ccc(C#Cc3ccccc3)cn2)CC12CC2 [Example 96, 4-Methyl-6-(5-phenylethynyl-pyridin-2-yl)-4,6-diaza-spiro[2.4]heptan-5-one] | 35 | 98
16 | CC1(C)CN(c2ccc(C#Cc3ccccc3)cn2)C1=O [Example 97, 3,3-Dimethyl-1-(5-phenylethynyl-pyridin-2-yl)-azetidin-2-one] | 36 | 71
17 | CN1C(=O)N(c2ncc(C#Cc3ccccc3)cn2)CC1(C)C [Example 122, 3,4,4-Trimethyl-1-(5-phenylethynyl-pyrimidin-2-yl)-imidazolidin-2-one] | 11 | 36
18 | CO[C@@H]1C(=O)N(c2ncc(C#Cc3cccc(F)c3)cn2)CC1(C)C (single isomer, unassigned) [Example 131, (R or S)-1-[5-(3-Fluoro-phenylethynyl)-pyrimidin-2-yl]-3-methoxy-4,4-dimethyl-pyrrolidin-2-one] | 35 | 48
19 | COC1C(=O)N(c2ccc(C#Cc3cccc(C)c3)cn2)CC1(C)C (racemic) [Example 64, (RS)-3-Methoxy-4,4-dimethyl-1-(5-m-tolylethynyl-pyridin-2-yl)-pyrrolidin-2-one] | 87 | 56

Row | Structure (SMILES) | EC50 [nM] | Emax [%]
20 | CC1(C)OC(=O)N(c2ccc(C#Cc3ccccc3)cn2)CC1O (racemic) [Example 95, (RS)-5-Hydroxy-6,6-dimethyl-3-(5-phenylethynyl-pyridin-2-yl)-[1,3]oxazinan-2-one] | 47 | 118
21 | CN1C(=O)N(c2cnc(C#Cc3cccc(F)c3)cn2)CC1(C)C [Example 158, 1-(5-((3-Fluorophenyl)ethynyl)pyrazin-2-yl)-3,4,4-trimethylimidazolidin-2-one] | 46 | 36
22 | CC1CN(c2ncc(C#Cc3cccc(F)c3)cn2)C(=O)OC1(C)C (racemic) [Example 148, (RS)-3-[5-(3-Fluoro-phenylethynyl)-pyrimidin-2-yl]-5,6,6-trimethyl-[1,3]oxazinan-2-one] | 39 | 75
23 | COC1CN(c2ccc(C#Cc3cccc(F)c3)cn2)C(=O)OC1(C)C (racemic) [Example 169, (RS)-3-[5-(3-Fluoro-phenylethynyl)-pyridin-2-yl]-5-methoxy-6,6-dimethyl-[1,3]oxazinan-2-one] | 13 | 52
24 | Cc1cccc(C#Cc2ccc(N3CC(C)(C)N(C)C3=O)nn2)c1 [Example 154, 3,4,4-Trimethyl-1-(6-(m-tolylethynyl)pyridazin-3-yl)imidazolidin-2-one] | 61 | 108
25 | CC1(C)CN(c2ccc(C#Cc3ccccc3)cn2)C(=O)CO1 [Example 172, 6,6-Dimethyl-4-(5-phenylethynyl-pyridin-2-yl)-morpholin-3-one] | 29 | 82
26 | CC(C)N1C(=O)N(c2ncc(C#Cc3cccc(F)c3)cn2)CC1(C)C [Example 141, 1-[5-(3-Fluoro-phenylethynyl)-pyrimidin-2-yl]-3-isopropyl-4,4-dimethyl-imidazolidin-2-one] | 28 | 39
27 | CC1(C)CCN(c2cnc(C#Cc3ccccc3)cn2)C(=O)N1 [Example 164, 4,4-Dimethyl-1-(5-(phenylethynyl)pyrazin-2-yl)tetrahydropyrimidin-2(1H)-one] | 329 | 89
28 | CN1C(=O)N(c2ccc(C#Cc3cncc(F)c3)cn2)C2CCCCC21 (stereo not drawn) [Example 86, (3aSR,7aRS)-(3aRS,7RS)-1-[5-(5-Fluoro-pyridin-3-ylethynyl)-pyridin-2-yl]-3-methyl-octahydro-benzoimidazol-2-one] | 32 | 52
29 | CN1C(=O)N(c2ccc(C#Cc3cccnc3)cn2)C2CCCCC21 (stereo not drawn) [Example 85, (3aSR,7aRS)-(3aRS,7RS)-1-Methyl-3-(5-pyridin-3-ylethynyl-pyridin-2-yl)-octahydro-benzoimidazol-2-one] | 27 | 49
30 | CCN1C(=O)N(c2ncc(C#Cc3cccc(F)c3)cn2)CC1(C)C [Example 144, 1-[5-(3-Fluoro-phenylethynyl)-pyrimidin-2-yl]-3-ethyl-4,4-dimethyl-imidazolidin-2-one] | 31 | 58
31 | COC[C@H]1CN(c2ccc(C#Cc3ccccc3)cn2)C(=O)O1 (single isomer, unassigned) [Example 3, (5R or 5S)-5-Methoxymethyl-3-(5-phenylethynyl-pyridin-2-yl)-oxazolidin-2-one] | 18 | 46
32 | CN1C(=O)N(c2ccc(C#Cc3cncc(F)c3)cn2)CC1(C)C [Example 49, 1-[5-(5-Fluoro-pyridin-3-ylethynyl)-pyridin-2-yl]-3,4,4-trimethyl-imidazolidin-2-one] | 37 | 91
33 | O=C1CC2(CCCC2)CN1c1ccc(C#Cc2ccccc2)cn1 [Example 59, 2-(5-Phenylethynyl-pyridin-2-yl)-2-aza-spiro[4.4]nonan-3-one] | 16 | 81
34 | O=C1[C@H]2CCC[C@H]2N1c1ccc(C#Cc2ccccc2)cn1 (racemic) [Example 46, (1RS,5SR)-6-(5-Phenylethynyl-pyridin-2-yl)-6-aza-bicyclo[3.2.0]heptan-7-one] | 26 | 27
35 | O=C1OC2(CCCC2)CN1c1ccc(C#Cc2ccccc2)cn1 [Example 11, 3-(5-Phenylethynyl-pyridin-2-yl)-1-oxa-3-aza-spiro[4.4]nonan-2-one] | 39 | 52
36 | O=C1O[C@H]2CCC[C@H]2N1c1ccc(C#Cc2cccnc2)cn1 (racemic) [Example 23, (3aRS,6aSR)-3-(5-Pyridin-3-ylethynyl-pyridin-2-yl)-hexahydro-cyclopentaoxazol-2-one] | 12 | 92
37 | CC1(C)CCC(=O)N(c2ccc(C#Cc3ccccc3)cn2)C1 [Example 42, 5,5-Dimethyl-5′-phenylethynyl-3,4,5,6-tetrahydro-[1,2′]bipyridinyl-2-one] | 16 | 139
